Results on four compounds are retold here after paper PMC11373361, “Expanding the inhibitor space of the WWP1 and WWP2 HECT E3 ligases” (Journal of Enzyme Inhibition and Medicinal Chemistry, 2024).

One data set concerns WWP2. More on the design: method as in PMID 30207403. The conditions noted are these: cited from earlier work.
The target of a further data set is T1, WWP1-L34H (Homo sapiens, UniProt Q9H0M0).
T1 construct: WWP1- 2,3-linker-WW3-WW4-HECT (WWP1-L34H); made in house; host or cells: E. coli BL21-CodonPlus RP (plasmid pET32a-WWP1-L34H, gifted by Dr Wenyu Wen)
T1 sequence (Q9H0M0 415-922, stated change not applied): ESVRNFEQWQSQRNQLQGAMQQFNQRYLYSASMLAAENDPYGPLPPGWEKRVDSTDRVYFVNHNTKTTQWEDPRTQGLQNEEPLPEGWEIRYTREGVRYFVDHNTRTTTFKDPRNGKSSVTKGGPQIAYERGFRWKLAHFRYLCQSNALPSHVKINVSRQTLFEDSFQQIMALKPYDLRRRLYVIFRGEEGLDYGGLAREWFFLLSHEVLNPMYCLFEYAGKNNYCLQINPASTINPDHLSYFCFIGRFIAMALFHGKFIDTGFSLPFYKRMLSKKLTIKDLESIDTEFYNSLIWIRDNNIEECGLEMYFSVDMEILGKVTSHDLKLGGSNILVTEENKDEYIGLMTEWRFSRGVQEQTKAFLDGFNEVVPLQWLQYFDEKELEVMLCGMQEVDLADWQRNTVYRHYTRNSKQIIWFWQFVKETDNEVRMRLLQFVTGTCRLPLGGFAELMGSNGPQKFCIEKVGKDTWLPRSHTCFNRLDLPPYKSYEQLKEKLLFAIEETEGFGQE
Kind of data set: WWP1 ELISA autoubiquitination assay. To be noted: 1% DMSO. In kind it is biochemical. The protocol:
(§1) Cell lysate containing His-tagged WWP1-L34H or GST-tagged WWP2-FL proteins were incubated on either 96-well Clear Pierce glutathione or nickel-coated plates for 1 h in PBS. Reaction mixtures of either 3 ng/well GST-Uba1 and 15 ng/well UbcH7 or 10 ng/well His-Uba1 and 150 ng/well His-UbcH7 were incubated together in 25 mM Tris pH 8.0, 100 mM NaCl, 4 mM MgCl2 containing 60 ng/well FLAG-ubiquitin and 1.25 mM ATP for 40 min. A prior 1% BSA plate blocking step is required for nickel-coated plates. After plate washing, 2 μL of the compound was added at the desired concentration (0.1 – 1% DMSO) followed by 18 μL of the reaction mixture. This was then incubated for 2 h with 0% and 100% controls before 100 μL of anti-FLAG M2-Peroxidase HRP (1: 10,000 PBST) was added to each well and incubated for 1 h. Finally, 100 μL of 1 × TMB substrate solution (Invitrogen) was added to each well and incubated for up to 10 min until sufficient blue colour change was observed. To stop the reaction, 100 μL of 1 M HCl was added. GST-tagged Uba1 counter-assay followed a similar protocol first incubating cell lysate for 1 h before adding 20 µL of reaction mixture containing 60 ng/well FLAG-ubiquitin, 1.25 mM ATP, and 1 mM compound at 1% DMSO. His-tagged UbcH7 counter-assays preincubated 3 ng/well GST-Uba1 and 200 ng/well UbcH7 with the reaction mixture components (60 ng/well FLAG-ubiquitin, 1.25 mM ATP, and 1 mM compound at 1% DMSO) for 1 h before incubating onto nickel-coated plates for a further 1 h. All other steps were followed. The plates were washed three times with PBST (and 15 mM Imidazole) between each step. Quantification was measured by absorbance read at 450 nm, standardised to the 0% and 100% activity controls. A visual representation of the assay steps is shown in SI Figure S13. All assay optimisations have been previously reported by Watt and colleagues. IC50 non-linear regression curves were calculated in GraphPad v10.2 (Prism).
(§2) The DSF hit compounds were initially screened using a single-shot WWP1 and WWP2 ELISA autoubiquitination assay at 500 µM compound (1% DMSO), measuring inhibition against their relative autoubiquitination activity following protocols previously described. […] Four NSC compounds for WWP1 (13151, 73735, 85433 & 637578) and three NSC compounds for WWP2 (26112, 57103 & 217913) were initially selected having a threshold of less than 50% relative activity when compared to 0% and 100% controls (Figure 2).
(§3) The resulting synthesised analogues were screened using the single-shot ELISA autoubiquitination assay at 1 mM compound concentration (1% DMSO) before IC50 values were calculated for hit compounds (SI Figure 2–4).

The next data set concerns the target T2, UbcH7 (Homo sapiens, UniProt P68036).
T2 construct: made in house; host or cells: E. coli BL21-CodonPlus RP (plasmid pET3a-UbcH7 His, gifted by Professor Martin Scheffner)
Kind of data set: UbcH7 counter autoubiquitination assay. It is filed as biochemical. To be noted: 1 mM compound, 1% DMSO; in Table S6 73735 and 217913 synthesised. The protocol:
as §1
These preliminary hit compounds were further screened in dose-dependent ELISA autoubiquitination assays from 500 µM − 5 nM, with three NSC compounds for WWP1 (13151, 73735 & 85433) and only two NSC compounds for WWP2 (57103 & 217913) showing a dose-response (SI Table S4). […] To ensure the intended target was being inhibited and not the […] Uba1 (E1) and UbcH7 (E2) enzymes used in the catalytic cascade of the assay, a counter autoubiquitination screen was utilised. Upon counter-activity analysis, only with NSC-217913 did UbcH7 retain more than 90% activity and so this was selected as the sole validated hit compound from our inhibition screen (SI Table S6).

The next data set concerns the target T3, WWP2-FL (Homo sapiens, UniProt O00308).
T3 construct: full-length WWP2 (WWP2-FL); made in house; host or cells: E. coli BL21-CodonPlus RP (plasmid pGEX2T-WWP2-FL, Dr Andrew Chantry's Lab)
Kind of data set: WWP2 ELISA autoubiquitination assay. In kind it is biochemical. The protocol:
as §1, §2, §3
ELISA Autoubiquitination Assay
Figure S13. Schematic diagram of the WWP2 ELISA autoubiquitination assay. (1a) Immobilisation of GST-Tagged WWP2 on glutathione coated plates. The GST-tagged (green) WWP2-FL (orange) is bound to glutathione (black), further linked via an SSMPB linker (pink) bound to haemoglobin (red). (1b) Reaction mixture of His-E1, His-E2 and flag-tagged Ub. Flag-tagged (red) Ub (dark pink) is first charged to Uba1/E1 (light pink) using ATP (blue) and then transferred to UbcH7/E2 (light brown).
(2) Ub charged E2 incubation with immobilised WWP2. UbcH7/E2 transfers flag-tagged Ub to WWP2 before WWP2 auto-ubiquitination occurs in the absence or presence of compounds (blue). (3) Incubation of recombinant HRP anti-flag antibody with auto-ubiquitinated WWP2. Anti-flag antibody (purple) containing recombinant HRP (orange) associates with the flag-tagged Ub. (4) HRP-mediated oxidation of TMB.
Single-electron oxidation of TMB by HRP in the presence of HO creates first a blue colour change, before acidification results in a yellow colour change (450 nm) stopping

In the next data set the test system is WWP1. More on the design: method as in PMID 31097636. To be noted: cited from earlier work.
Where [1] appears, read: synthesised compound, WWP2-FL, 1% DMSO, 95% CI range in brackets.

T3 sequence (O00308 whole entry): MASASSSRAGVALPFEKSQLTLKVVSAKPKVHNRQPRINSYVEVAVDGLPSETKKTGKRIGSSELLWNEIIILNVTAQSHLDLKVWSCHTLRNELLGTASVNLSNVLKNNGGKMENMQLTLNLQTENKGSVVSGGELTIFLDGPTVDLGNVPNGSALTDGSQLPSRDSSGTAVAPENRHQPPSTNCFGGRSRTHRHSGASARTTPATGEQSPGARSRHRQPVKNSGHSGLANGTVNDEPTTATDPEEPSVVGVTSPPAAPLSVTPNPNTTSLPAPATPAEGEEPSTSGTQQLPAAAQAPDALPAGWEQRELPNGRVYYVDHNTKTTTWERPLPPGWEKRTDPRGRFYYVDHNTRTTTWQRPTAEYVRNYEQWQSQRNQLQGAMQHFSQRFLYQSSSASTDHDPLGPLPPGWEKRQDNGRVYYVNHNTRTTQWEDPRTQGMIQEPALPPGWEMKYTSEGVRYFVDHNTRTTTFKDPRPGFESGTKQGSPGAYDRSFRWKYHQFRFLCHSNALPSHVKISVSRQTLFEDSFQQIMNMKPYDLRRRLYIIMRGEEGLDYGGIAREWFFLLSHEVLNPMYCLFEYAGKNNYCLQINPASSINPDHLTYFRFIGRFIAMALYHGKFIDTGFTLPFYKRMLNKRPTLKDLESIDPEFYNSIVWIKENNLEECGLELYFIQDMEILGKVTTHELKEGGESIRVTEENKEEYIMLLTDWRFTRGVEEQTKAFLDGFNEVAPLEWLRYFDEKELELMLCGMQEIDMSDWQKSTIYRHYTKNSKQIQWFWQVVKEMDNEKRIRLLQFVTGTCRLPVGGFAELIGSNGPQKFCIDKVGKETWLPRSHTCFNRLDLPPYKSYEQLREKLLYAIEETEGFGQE
T2 sequence (P68036 whole entry): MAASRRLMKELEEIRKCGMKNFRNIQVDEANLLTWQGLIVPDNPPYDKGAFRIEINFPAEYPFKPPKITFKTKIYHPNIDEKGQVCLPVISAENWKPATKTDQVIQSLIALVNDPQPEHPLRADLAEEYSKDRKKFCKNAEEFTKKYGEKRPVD

Turning to `COCCn1c2nc(=O)n(-c3ccccc3)c(=O)c-2nc2ccccc21` [NSC-288387], the IC50 in the data set on WWP2 was 2300 nM.
Turning to `COc1cc(-c2ccc(Nc3ccccc3C(=O)O)c(OC)c2)ccc1Nc1ccccc1C(=O)O` [NSC-73735], the “relative autoubiquitination activity, single-shot” value on WWP1-L34H (500 µM compound, normalised to 0% and 100% controls) is “less than 50%”. Moreover, the “UbcH7 Activity” value on UbcH7 came to 62.5 ± 2.4%. The same compound returned an IC50 against WWP2-FL (sample used directly from the NCI library, dose range 500 µM - 5 nM) of 49.1 µM.
Take `O=C(O)CSc1nc2nc(Cl)c(Cl)nc2[nH]1` [Compound 15, ({5,6-dichloro-1H-imidazo[4,5-b]pyrazine-2-yl}sulfanyl)acetic acid]: the melting point is 219.1 to 220.7 °C. On WWP1-L34H (synthesised compound, WWP1-L34H, 95% CI range in brackets), this compound yielded an IC50 of 375 µM. Also, the “UbcH7 Activity” value at UbcH7 was determined as 93.0 ± 1.0%. Moreover, on WWP2-FL (setting [1]), the IC50 turned out to be 666 µM and the “WWP2 IC50” value is “only weakly”.
In the case of `CCc1ccc(C=CC(=O)Nc2ccc(C(C)=O)cc2)o1` [Heclin], in the data set on WWP1, the IC50 is 6.9 µM.
